# Results reported in patent US20110053773A1, “METHODS OF IMPROVING NUTRITIONAL VALUE OF PLANTS” (UNIVERSITY OF TENNESSEE RESEARCH FOUNDATION, priority 2009, published 2011).
# Assays:
# kale 'Red Russian' [1] = test: Visual injury of kale after insecticide, fungicide, PGRs, safeners (Example 4); details: 28 DA-A
# Method: (§1) Greenhouse and laboratory studies were conducted to ascertain the tolerance and nutritional quality differences following postemergence applications of the insecticide chlorpyrifos, the fungicide chlorothalonil, the PGRs mepiquat-chloride and paclobutrazol, and the safeners napthalic anhydride and isoxadifen-ethyl on kale ‘Red Russian’ and basil ‘Genovese’. Visual injury was rated based on general phytotoxicity, chlorosis, and visual stunting and each measurement was based on a percent scale from 0 to 100 where 0 equals no visual response and 100 equals complete plant death. Kale and basil were both harvested approximately 4 weeks after treatments and plants were pooled over replicates for content analysis of crude protein, crude amino acid content, acid detergent fiber, neutral detergent fiber, total fatty acids, and/or key mineral content (including Na, Ca, P, Mg, K, Fe, Mn, Zn, and Cu). In addition, the amounts of key individual amino acids (aspartic acid, threonine, glutamic acid, proline, glycine, cysteine, valine, leucine, isoleucine, methionine, and lysine) and composite classifications of fatty acid (saturated fatty acids, monounsaturated fatty acids, polyunsaturated fatty acids) were also analyzed from these sub-samples for kale (Tables 10-14).
# kale 'Red Russian' [2] = test: Content analysis of kale: protein, amino acids, fiber, fatty acids, minerals (Example 4, Tables 12-14); format: in vivo; details: 28 DA-A; for Alanine, Percent Increase over the Untreated Check (on a % dry matter basis) / Aspartic acid, Percent Increase over the Untreated Check (on a % dry matter basis) / Cysteine, Percent Increase over the Untreated Check (on a % dry matter basis) / Glutamic acid, Percent Increase over the Untreated Check (on a % dry matter basis) / Glycine, Percent Increase over the Untreated Check (on a % dry matter basis) / Iso-leucine, Percent Increase over the Untreated Check (on a % dry matter basis) / Leucine, Percent Increase over the Untreated Check (on a % dry matter basis) / Lysine, Percent Increase over the Untreated Check (on a % dry matter basis) / Methionine, Percent Increase over the Untreated Check (on a % dry matter basis) / Proline, Percent Increase over the Untreated Check (on a % dry matter basis) / Threonine, Percent Increase over the Untreated Check (on a % dry matter basis) / Total Amino acids, Percent Increase over the Untreated Check (on a % dry matter basis) / Total Protein, Percent Increase over the Untreated Check (on a % dry matter basis) / Valine, Percent Increase over the Untreated Check (on a % dry matter basis): chlorothalonil ###
# Method: as §1
# basil ‘Genovese’ = test: Yield, fresh weight of basil after insecticide, fungicide, PGRs and safeners (Example 4, Table 10); format: in vivo; details: DA-A, check 31.8
# Outline: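 Plants were harvested about 4 weeks post-treatment and pooled across replicates to analyse protein, amino acids, fiber, fatty acids and minerals (Na, Ca, P, Mg, K, Fe, Mn, Zn, Cu). Treatments were postemergence insecticide, fungicide, PGRs and safeners. Visual injury scored 0–100% (phytotoxicity, chlorosis, stunting).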
# kale ‘Red Russian’ = test: Yield, fresh weight of kale after insecticide, fungicide and PGRs (Example 4, Table 12); format: in vivo; details: 28 DA-A, Untreated Check 106.9
# Method: as §1
# [3] = rates g ai/ha: chlropyrifos 1120, chlorothalonil 2630, paclobutrazol 3.23, mepiquat-chloride 12.3, + NIS 0.25 % v/v
# [4] = rates g ai/ha: chlropyrifos 3370, chlorothalonil 7900, paclobutrazol 9.7, mepiquat-chloride 37, + NIS 0.25 % v/v
# [5] = first-listed rate g ai/ha: chlropyrifos ###, paclobutrazol 3.2, mepiquat-chloride 12, + NIS 0.3 % v/v
# [6] = second-listed rate g ai/ha: chlropyrifos ###, paclobutrazol 9.7, mepiquat-chloride 37, + NIS 0.3 % v/v
smiles,measurement,setting,value
C[N+]1(C)CCCCC1 [mepiquat-chloride],Phytotoxicity Stunting,kale 'Red Russian' [1]; [3],9%
same,Phytotoxicity Chlorosis,kale 'Red Russian' [1]; [4],3%
same,Phytotoxicity General,kale 'Red Russian' [1]; [4],3%
same,Phytotoxicity Stunting,kale 'Red Russian' [1]; [4],10%
same,"Alanine, Percent Increase over the Untreated Check (on a % dry matter basis)",kale 'Red Russian' [2]; [5],5 % check
same,"Aspartic acid, Percent Increase over the Untreated Check (on a % dry matter basis)",kale 'Red Russian' [2]; [5],6 % check
same,"Cysteine, Percent Increase over the Untreated Check (on a % dry matter basis)",kale 'Red Russian' [2]; [5],6 % check
same,"Glutamic acid, Percent Increase over the Untreated Check (on a % dry matter basis)",kale 'Red Russian' [2]; [5],11 % check
same,"Glycine, Percent Increase over the Untreated Check (on a % dry matter basis)",kale 'Red Russian' [2]; [5],4 % check
same,"Iso-leucine, Percent Increase over the Untreated Check (on a % dry matter basis)",kale 'Red Russian' [2]; [5],6 % check
same,"Leucine, Percent Increase over the Untreated Check (on a % dry matter basis)",kale 'Red Russian' [2]; [5],4 % check
same,"Lysine, Percent Increase over the Untreated Check (on a % dry matter basis)",kale 'Red Russian' [2]; [5],6 % check
same,"Methionine, Percent Increase over the Untreated Check (on a % dry matter basis)",kale 'Red Russian' [2]; [5],4 % check
same,"Proline, Percent Increase over the Untreated Check (on a % dry matter basis)",kale 'Red Russian' [2]; [5],8 % check
same,"Threonine, Percent Increase over the Untreated Check (on a % dry matter basis)",kale 'Red Russian' [2]; [5],6 % check
same,"Total Amino acids, Percent Increase over the Untreated Check (on a % dry matter basis)",kale 'Red Russian' [2]; [5],6 % check
same,"Total Protein, Percent Increase over the Untreated Check (on a % dry matter basis)",kale 'Red Russian' [2]; [5],4 % check
same,"Valine, Percent Increase over the Untreated Check (on a % dry matter basis)",kale 'Red Russian' [2]; [5],5 % check
same,"ADF, Percent Increase Over the Untreated Check (on a % dry matter basis)",kale 'Red Russian' [2]; [3],7 % check
same,"Calcium, Percent Increase Over the Untreated Check (on a % dry matter basis)",kale 'Red Russian' [2]; [3],−4 % check
same,"Copper, Percent Increase Over the Untreated Check (on a % dry matter basis)",kale 'Red Russian' [2]; [3],0 % check
same,"Iron, Percent Increase Over the Untreated Check (on a % dry matter basis)",kale 'Red Russian' [2]; [3],−5 % check
same,"Magnesium, Percent Increase Over the Untreated Check (on a % dry matter basis)",kale 'Red Russian' [2]; [3],−3 % check
same,"Manganese, Percent Increase Over the Untreated Check (on a % dry matter basis)",kale 'Red Russian' [2]; [3],−2 % check
same,"NDF, Percent Increase Over the Untreated Check (on a % dry matter basis)",kale 'Red Russian' [2]; [3],−2 % check
same,"Phosphorous, Percent Increase Over the Untreated Check (on a % dry matter basis)",kale 'Red Russian' [2]; [3],1 % check
same,"Potassium, Percent Increase Over the Untreated Check (on a % dry matter basis)",kale 'Red Russian' [2]; [3],−5 % check
same,"Sodium, Percent Increase Over the Untreated Check (on a % dry matter basis)",kale 'Red Russian' [2]; [3],4 % check
same,"Zinc, Percent Increase Over the Untreated Check (on a % dry matter basis)",kale 'Red Russian' [2]; [3],−5 % check
same,"ADF, Percent Increase Over the Untreated Check (on a % dry matter basis)",kale 'Red Russian' [2]; [4],−2 % check
same,"Calcium, Percent Increase Over the Untreated Check (on a % dry matter basis)",kale 'Red Russian' [2]; [4],−3 % check
same,"Copper, Percent Increase Over the Untreated Check (on a % dry matter basis)",kale 'Red Russian' [2]; [4],−6 % check
same,"Iron, Percent Increase Over the Untreated Check (on a % dry matter basis)",kale 'Red Russian' [2]; [4],−4 % check
same,"Magnesium, Percent Increase Over the Untreated Check (on a % dry matter basis)",kale 'Red Russian' [2]; [4],0 % check
same,"Manganese, Percent Increase Over the Untreated Check (on a % dry matter basis)",kale 'Red Russian' [2]; [4],−7 % check
same,"NDF, Percent Increase Over the Untreated Check (on a % dry matter basis)",kale 'Red Russian' [2]; [4],−7 % check
same,"Phosphorous, Percent Increase Over the Untreated Check (on a % dry matter basis)",kale 'Red Russian' [2]; [4],1 % check
same,"Potassium, Percent Increase Over the Untreated Check (on a % dry matter basis)",kale 'Red Russian' [2]; [4],−1 % check
same,"Sodium, Percent Increase Over the Untreated Check (on a % dry matter basis)",kale 'Red Russian' [2]; [4],4 % check
same,"Zinc, Percent Increase Over the Untreated Check (on a % dry matter basis)",kale 'Red Russian' [2]; [4],−10 % check
same,"Alanine, Percent Increase over the Untreated Check (on a % dry matter basis)",kale 'Red Russian' [2]; [6],−4 % check
same,"Aspartic acid, Percent Increase over the Untreated Check (on a % dry matter basis)",kale 'Red Russian' [2]; [6],−2 % check
same,"Cysteine, Percent Increase over the Untreated Check (on a % dry matter basis)",kale 'Red Russian' [2]; [6],−6 % check
same,"Glutamic acid, Percent Increase over the Untreated Check (on a % dry matter basis)",kale 'Red Russian' [2]; [6],−2 % check
same,"Glycine, Percent Increase over the Untreated Check (on a % dry matter basis)",kale 'Red Russian' [2]; [6],−7 % check
same,"Iso-leucine, Percent Increase over the Untreated Check (on a % dry matter basis)",kale 'Red Russian' [2]; [6],−3 % check
same,"Leucine, Percent Increase over the Untreated Check (on a % dry matter basis)",kale 'Red Russian' [2]; [6],−4 % check
same,"Lysine, Percent Increase over the Untreated Check (on a % dry matter basis)",kale 'Red Russian' [2]; [6],−1 % check
same,"Methionine, Percent Increase over the Untreated Check (on a % dry matter basis)",kale 'Red Russian' [2]; [6],−4 % check
same,"Proline, Percent Increase over the Untreated Check (on a % dry matter basis)",kale 'Red Russian' [2]; [6],2 % check
same,"Threonine, Percent Increase over the Untreated Check (on a % dry matter basis)",kale 'Red Russian' [2]; [6],−1 % check
same,"Total Amino acids, Percent Increase over the Untreated Check (on a % dry matter basis)",kale 'Red Russian' [2]; [6],−2 % check
same,"Total Protein, Percent Increase over the Untreated Check (on a % dry matter basis)",kale 'Red Russian' [2]; [6],0 % check
same,"Valine, Percent Increase over the Untreated Check (on a % dry matter basis)",kale 'Red Russian' [2]; [6],−2 % check
same,Yield Fresh weight,"basil ‘Genovese’; rates g ai/ha: chlropyrifos 1120, chlorothalonil 2630, paclobutrazol 3.23, mepiquat-chloride 12.3, Isoxadifen 8, Napthalic anhydride 264, + NIS 0.25 % v/v",36.9 grams
same,Yield Fresh weight,"basil ‘Genovese’; rates g ai/ha: chlropyrifos 3370, chlorothalonil 7900, paclobutrazol 9.7, mepiquat-chloride 37, Isoxadifen 16, Napthalic anhydride 527, + NIS 0.25 % v/v",35.6 grams
same,Yield Fresh weight,kale ‘Red Russian’; [3],101.8 grams
same,Yield Fresh weight,kale ‘Red Russian’; [4],101.2 grams
